# Test system: barnyardgrass (Echinochloa crus-galli)
# Assay: Test A preemergence, barnyardgrass
# Assay type: in vivo
# Conditions: 125 g ai/ha, 0 to 100 scale
# Outline: (§1)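 Pre: seeds planted in loam/sand, directed soil spray. Post: 2–10 cm plants, 1–2 leaf. Formulation: non-phytotoxic solvent + surfactant. Greenhouse ~10 d; visual injury vs untreated, 0 = no effect, 100 = complete control.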
row,SMILES,"Plant response rating, Barnyardgrass"
1,O=C1NCC(/C=C/c2ccc(F)cc2)C1C(=O)Nc1cccc(F)c1F (stereo not drawn) [Compound 31],0

# Same assay, conditions: 500 g ai/ha, 0 to 100 scale
row,SMILES,"Plant response rating, Barnyardgrass"
1,O=C1NCC(/C=C/c2ccc(F)cc2)C1C(=O)Nc1cccc(F)c1F (stereo not drawn) [Compound 31],70

# Test system: kochia (Kochia scoparia)
# Assay: Test A preemergence, kochia
# Assay type: in vivo
# Conditions: 125 g ai/ha, 0 to 100 scale
# Outline: as §1
row,SMILES,"Plant response rating, Kochia"
1,O=C1NCC(/C=C/c2ccc(F)cc2)C1C(=O)Nc1cccc(F)c1F (stereo not drawn) [Compound 31],0

# Same assay, conditions: 500 g ai/ha, 0 to 100 scale
row,SMILES,"Plant response rating, Kochia"
1,O=C1NCC(/C=C/c2ccc(F)cc2)C1C(=O)Nc1cccc(F)c1F (stereo not drawn) [Compound 31],20

# Test system: ragweed (common ragweed, Ambrosia elatior)
# Assay: Test A preemergence, ragweed
# Assay type: in vivo
# Conditions: 125 g ai/ha, 0 to 100 scale
# Outline: as §1
row,SMILES,"Plant response rating, Ragweed"
1,O=C1NCC(/C=C/c2ccc(F)cc2)C1C(=O)Nc1cccc(F)c1F (stereo not drawn) [Compound 31],0

# Same assay, conditions: 500 g ai/ha, 0 to 100 scale
row,SMILES,"Plant response rating, Ragweed"
1,O=C1NCC(/C=C/c2ccc(F)cc2)C1C(=O)Nc1cccc(F)c1F (stereo not drawn) [Compound 31],0

# Test system: ryegrass, It. (Italian ryegrass, Lolium multiflorum)
# Assay: Test A preemergence, ryegrass, It.
# Assay type: in vivo
# Conditions: 125 g ai/ha, 0 to 100 scale
# Outline: as §1
row,SMILES,"Plant response rating, Ryegrass, It."
1,O=C1NCC(/C=C/c2ccc(F)cc2)C1C(=O)Nc1cccc(F)c1F (stereo not drawn) [Compound 31],0

# Same assay, conditions: 500 g ai/ha, 0 to 100 scale
row,SMILES,"Plant response rating, Ryegrass, It."
1,O=C1NCC(/C=C/c2ccc(F)cc2)C1C(=O)Nc1cccc(F)c1F (stereo not drawn) [Compound 31],0

# Test system: foxtail, giant (giant foxtail, Setaria faberii)
# Assay: Test A preemergence, foxtail, giant
# Assay type: in vivo
# Conditions: 125 g ai/ha, 0 to 100 scale
# Outline: as §1
row,SMILES,"Plant response rating, Foxtail, Giant"
1,O=C1NCC(/C=C/c2ccc(F)cc2)C1C(=O)Nc1cccc(F)c1F (stereo not drawn) [Compound 31],20

# Same assay, conditions: 500 g ai/ha, 0 to 100 scale
row,SMILES,"Plant response rating, Foxtail, Giant"
1,O=C1NCC(/C=C/c2ccc(F)cc2)C1C(=O)Nc1cccc(F)c1F (stereo not drawn) [Compound 31],70

# Test system: pigweed (Amaranthus retroflexus)
# Assay: Test A preemergence, pigweed
# Assay type: in vivo
# Conditions: 125 g ai/ha, 0 to 100 scale
# Outline: as §1
row,SMILES,"Plant response rating, Pigweed"
1,O=C1NCC(/C=C/c2ccc(F)cc2)C1C(=O)Nc1cccc(F)c1F (stereo not drawn) [Compound 31],0

# Same assay, conditions: 500 g ai/ha, 0 to 100 scale
row,SMILES,"Plant response rating, Pigweed"
1,O=C1NCC(/C=C/c2ccc(F)cc2)C1C(=O)Nc1cccc(F)c1F (stereo not drawn) [Compound 31],0

# Test system: barnyardgrass (Echinochloa crus-galli)
# Assay: Test A postemergence, barnyardgrass
# Assay type: in vivo
# Conditions: 125 g ai/ha, 0 to 100 scale
# Outline: as §1
row,SMILES,"Plant response rating, Barnyardgrass"
1,O=C1NCC(/C=C/c2ccc(F)cc2)C1C(=O)Nc1cccc(F)c1F (stereo not drawn) [Compound 31],30

# Same assay, conditions: 500 g ai/ha, 0 to 100 scale
row,SMILES,"Plant response rating, Barnyardgrass"
1,O=C1NCC(/C=C/c2ccc(F)cc2)C1C(=O)Nc1cccc(F)c1F (stereo not drawn) [Compound 31],70

# Test system: kochia (Kochia scoparia)
# Assay: Test A postemergence, kochia
# Assay type: in vivo
# Conditions: 125 g ai/ha, 0 to 100 scale
# Outline: as §1
row,SMILES,"Plant response rating, Kochia"
1,O=C1NCC(/C=C/c2ccc(F)cc2)C1C(=O)Nc1cccc(F)c1F (stereo not drawn) [Compound 31],0

# Same assay, conditions: 500 g ai/ha, 0 to 100 scale
row,SMILES,"Plant response rating, Kochia"
1,O=C1NCC(/C=C/c2ccc(F)cc2)C1C(=O)Nc1cccc(F)c1F (stereo not drawn) [Compound 31],30

# Test system: ragweed (common ragweed, Ambrosia elatior)
# Assay: Test A postemergence, ragweed
# Assay type: in vivo
# Conditions: 125 g ai/ha, 0 to 100 scale
# Outline: as §1
row,SMILES,"Plant response rating, Ragweed"
1,O=C1NCC(/C=C/c2ccc(F)cc2)C1C(=O)Nc1cccc(F)c1F (stereo not drawn) [Compound 31],0

# Same assay, conditions: 500 g ai/ha, 0 to 100 scale
row,SMILES,"Plant response rating, Ragweed"
1,O=C1NCC(/C=C/c2ccc(F)cc2)C1C(=O)Nc1cccc(F)c1F (stereo not drawn) [Compound 31],20

# Test system: ryegrass, It. (Italian ryegrass, Lolium multiflorum)
# Assay: Test A postemergence, ryegrass, It.
# Assay type: in vivo
# Conditions: 125 g ai/ha, 0 to 100 scale
# Outline: as §1
row,SMILES,"Plant response rating, Ryegrass, It."
1,O=C1NCC(/C=C/c2ccc(F)cc2)C1C(=O)Nc1cccc(F)c1F (stereo not drawn) [Compound 31],0

# Same assay, conditions: 500 g ai/ha, 0 to 100 scale
row,SMILES,"Plant response rating, Ryegrass, It."
1,O=C1NCC(/C=C/c2ccc(F)cc2)C1C(=O)Nc1cccc(F)c1F (stereo not drawn) [Compound 31],20

# Test system: foxtail, giant (giant foxtail, Setaria faberii)
# Assay: Test A postemergence, foxtail, giant
# Assay type: in vivo
# Conditions: 125 g ai/ha, 0 to 100 scale
# Outline: as §1
row,SMILES,"Plant response rating, Foxtail, Giant"
1,O=C1NCC(/C=C/c2ccc(F)cc2)C1C(=O)Nc1cccc(F)c1F (stereo not drawn) [Compound 31],30

# Same assay, conditions: 500 g ai/ha, 0 to 100 scale
row,SMILES,"Plant response rating, Foxtail, Giant"
1,O=C1NCC(/C=C/c2ccc(F)cc2)C1C(=O)Nc1cccc(F)c1F (stereo not drawn) [Compound 31],60

# Test system: wheat (Triticum aestivum)
# Assay: Test A postemergence, wheat
# Assay type: in vivo
# Conditions: 125 g ai/ha, 0 to 100 scale
# Outline: as §1
row,SMILES,"Plant response rating, Wheat"
1,O=C1NCC(/C=C/c2ccc(F)cc2)C1C(=O)Nc1cccc(F)c1F (stereo not drawn) [Compound 31],0

# Same assay, conditions: 500 g ai/ha, 0 to 100 scale
row,SMILES,"Plant response rating, Wheat"
1,O=C1NCC(/C=C/c2ccc(F)cc2)C1C(=O)Nc1cccc(F)c1F (stereo not drawn) [Compound 31],0

# Test system: corn (Zea mays)
# Assay: Test A postemergence, corn
# Assay type: in vivo
# Conditions: 125 g ai/ha, 0 to 100 scale
# Outline: as §1
row,SMILES,"Plant response rating, Corn"
1,O=C1NCC(/C=C/c2ccc(F)cc2)C1C(=O)Nc1cccc(F)c1F (stereo not drawn) [Compound 31],0

# Same assay, conditions: 500 g ai/ha, 0 to 100 scale
row,SMILES,"Plant response rating, Corn"
1,O=C1NCC(/C=C/c2ccc(F)cc2)C1C(=O)Nc1cccc(F)c1F (stereo not drawn) [Compound 31],20

# Test system: pigweed (Amaranthus retroflexus)
# Assay: Test A postemergence, pigweed
# Assay type: in vivo
# Conditions: 125 g ai/ha, 0 to 100 scale
# Outline: as §1
row,SMILES,"Plant response rating, Pigweed"
1,O=C1NCC(/C=C/c2ccc(F)cc2)C1C(=O)Nc1cccc(F)c1F (stereo not drawn) [Compound 31],0

# Same assay, conditions: 500 g ai/ha, 0 to 100 scale
row,SMILES,"Plant response rating, Pigweed"
1,O=C1NCC(/C=C/c2ccc(F)cc2)C1C(=O)Nc1cccc(F)c1F (stereo not drawn) [Compound 31],0

# Test system: blackgrass (Alopecurus myosuroides)
# Assay: Test A postemergence, blackgrass
# Assay type: in vivo
# Conditions: 125 g ai/ha, 0 to 100 scale
# Outline: as §1
row,SMILES,"Plant response rating, Blackgrass"
1,O=C1NCC(/C=C/c2ccc(F)cc2)C1C(=O)Nc1cccc(F)c1F (stereo not drawn) [Compound 31],0

# Same assay, conditions: 500 g ai/ha, 0 to 100 scale
row,SMILES,"Plant response rating, Blackgrass"
1,O=C1NCC(/C=C/c2ccc(F)cc2)C1C(=O)Nc1cccc(F)c1F (stereo not drawn) [Compound 31],0

# Test system: galium (catchweed bedstraw, Galium aparine)
# Assay: Test A postemergence, galium
# Assay type: in vivo
# Conditions: 125 g ai/ha, 0 to 100 scale
# Outline: as §1
row,SMILES,"Plant response rating, Galium"
1,O=C1NCC(/C=C/c2ccc(F)cc2)C1C(=O)Nc1cccc(F)c1F (stereo not drawn) [Compound 31],0

# Same assay, conditions: 500 g ai/ha, 0 to 100 scale
row,SMILES,"Plant response rating, Galium"
1,O=C1NCC(/C=C/c2ccc(F)cc2)C1C(=O)Nc1cccc(F)c1F (stereo not drawn) [Compound 31],30

# Test system: barnyardgrass (Echinochloa crus-galli)
# Assay: Test B flooded paddy test, barnyardgrass
# Assay type: in vivo
# Conditions: Flood, 250 g ai/ha; scale of 0 to 100 where 0 is no effect and 100 is complete control; 13 to 15 d
# Outline: (§2)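 Ratings use a 0-100 visual scale, where 100 is complete control, and compare treated plants with controls after 13 to 15 d of greenhouse growth. Compound went straight into paddy water kept 3 cm over the soil surface, applied to seedlings at the 2-leaf stage.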
row,SMILES,"Plant response rating, Barnyardgrass"
1,O=C1NCC(/C=C/c2ccc(F)cc2)C1C(=O)Nc1cccc(F)c1F (stereo not drawn) [Compound 31],40

# Test system: ducksalad (Heteranthera limosa)
# Assay: Test B flooded paddy test, ducksalad
# Assay type: in vivo
# Conditions: Flood, 250 g ai/ha; scale of 0 to 100 where 0 is no effect and 100 is complete control; 13 to 15 d
# Outline: as §2
row,SMILES,"Plant response rating, Ducksalad"
1,O=C1NCC(/C=C/c2ccc(F)cc2)C1C(=O)Nc1cccc(F)c1F (stereo not drawn) [Compound 31],80

# Test system: rice (Oryza sativa)
# Assay: Test B flooded paddy test, rice
# Assay type: in vivo
# Conditions: Flood, 250 g ai/ha; scale of 0 to 100 where 0 is no effect and 100 is complete control; 13 to 15 d
# Outline: as §2
row,SMILES,"Plant response rating, Rice"
1,O=C1NCC(/C=C/c2ccc(F)cc2)C1C(=O)Nc1cccc(F)c1F (stereo not drawn) [Compound 31],15

# Test system: sedge, umbrella (small-flower umbrella sedge, Cyperus difformis)
# Assay: Test B flooded paddy test, sedge, umbrella
# Assay type: in vivo
# Conditions: Flood, 250 g ai/ha; scale of 0 to 100 where 0 is no effect and 100 is complete control; 13 to 15 d
# Outline: as §2
row,SMILES,"Plant response rating, Sedge, Umbrella"
1,O=C1NCC(/C=C/c2ccc(F)cc2)C1C(=O)Nc1cccc(F)c1F (stereo not drawn) [Compound 31],50

# Reference: patent publication US10906873B2, “Substituted cyclic amides as herbicides” (FMC Corporation, priority 2015, dated 2021)
